Consider one compound from article PMC2625307 (Journal of molecular biology, 2008).

Test [1] concerns IIIB. The class given is cell-based, HIV-1 group M. The note with it: PM1 cells, genetic distance to HXBc2 0.03060.
For test [2], the target named is T1, YU2 gp120 (Human immunodeficiency virus type 1 group M subtype B, UniProt P35961). In words: Surface-plasmon resonance binding, YU2 gp120. Set-up: species or system HIV-1.
Test [3] deals with T1, YU2 gp120. As to the kind of experiment: Contact surface area of gp120, YU2. Set-up: species or system HIV-1.
For test [4], the system named is HIV-1 gp120. The note with it: vs biphenyl counterpart (CD4M33, CD4M47).
Test [5] has as its system YU-2 env. Format: cell-based, HIV-1 group M. The note with it: JC53BL-13 cells, genetic distance to HXBc2 0.16766.
For test [6], the system named is BaL. Format: cell-based, HIV-1 group M. The note with it: PM1 cells, genetic distance to HXBc2 0.13532.
For test [7], the system named is NL4.3 env. The class given is cell-based, HIV-1 group M. The note with it: JC53BL-13 cells, genetic distance to HXBc2 0.05769.
The test system of test [8] is MN-25. Format: cell-based, HIV-1 group M. The note with it: JC53BL-13 cells, genetic distance to HXBc2 0.17951.
Test [9] addresses HXBc2 gp120 (Human immunodeficiency virus type 1 group M subtype B, UniProt P04578). As to the kind of experiment: Surface-plasmon resonance binding, HXBc2 gp120. Set-up: species or system HIV-1.
Test [10] concerns the target T1, YU2 gp120. More on the design: species or system HIV-1. The note with it: vs other mimetics.
Test [11] deals with GAB-2 62 fl. The class given is cell-based, SIVcpz (P.t.t). The note with it: JC53BL-13 cells, genetic distance to HXBc2 0.47819.
In test [12] the test system is GAB-1 fl. Format: cell-based, SIVcpz (P.t.t). The note with it: JC53BL-13 cells, genetic distance to HXBc2 0.43711.

`CC(C)C[C@@H]1NC(=O)CNC(=O)[C@H](CC(C)C)NC(=O)[C@H](CO)NC(=O)[C@H](CCCCN)NC(=O)[C@@H]2CSSC[C@@H](C(=O)N[C@H](C(N)=O)C(C)C)NC(=O)[C@H](C)NC(=O)[C@@H]3CSSC[C@H](NC(=O)[C@H](Cc4ccccc4)NC(=O)[C@H](Cc4c[nH]cn4)NC(=O)[C@H](CC(C)C)NC(=O)[C@H](CC(N)=O)NC(=O)CCSSC[C@H](NC(=O)[C@H](CCCCN)NC(=O)CNC(=O)[C@H](CC(C)C)NC1=O)C(=O)N[C@@H](C)C(=O)NCC(=O)N[C@@H](CO)C(=O)N[C@@H](Cc1ccccc1)C(=O)N3)C(=O)N[C@@H](CCC(N)=O)C(=O)N[C@@H](CC(C)C)C(=O)N[C@@H](CCCNC(=N)N)C(=O)N2` [[Phe^23]M33]: the half-inhibitory concentration (IC50) in [1] stood at 260 nM; in test [5], 1000 nM; in test [6], 200 nM; in [7], 13 nM; in test [8] it was 3600 nM; in test [11] it was 1000 nM. This compound also had an IC50 in [12] of 350 nM. In addition, the figures for the Kd in test [2] and in test [9] were 35.1 ± 0.18 nM and 18.9 ± 0.14 nM, respectively. Besides, the “Contact surface area of gp120, total” value is 363.8 Å^2 in test [3] (asymmetric unit molecule (1)) and 398.0 Å^2 in test [3] (asymmetric unit molecule (2)). The “on-rate compared with biphenyl counterpart” value in [4] is “about half as fast”. Further, the “similarity of induced gp120 conformation to that induced by CD4” value in test [10] is “the closest mimic to CD4”.

What is called IC50 is the point on the concentration scale where inhibition reaches its midpoint. For orientation: Kd means the constant that tells how readily two partners part at equilibrium. Low values mean higher affinity, high ones lower affinity.
